Assay results published in patent US9409864B2, “Sulfonamide TRPA1 receptor antagonists” (ARIO PHARMA LIMITED, priority 2013, dated 2016).
pIC50: −log10 of the molar value.

Target: T1, native human TRPA1 receptors (Homo sapiens, UniProt O75762)
T1 construct: stably expressing native human TRPA1 receptors were used; endogenous in cells; host or cells: A549 human lung adenocarcinoma epithelial cell line
Assay: PF-4840154 (1 μM)-induced Ca2+ fluorescence measurements in A549 cell line
Type: cell-based
Details: for inhibition at 10 µM: 10 μM compound against 1 μM PF-4840154, A549 cells; for pIC50: against PF-4840154 (1 μM)-evoked [Ca2+]i mobilization
Procedure: PF-4840154 (1 μM)-Induced Ca^2+ Fluorescence Measurements in A549 Cell Line
Human lung adenocarcinoma epithelial cell line (A549) stably expressing native human TRPA1 receptors were used. The cells were cultured in medium consisting of Eagle's minimal essential medium (EMEM) supplemented with 10% fetal bovine serum (FBS), penicillin (100 IU/ml), streptomycin ([…]), L-glutamine (2 mM), sodium bicarbonate (2.5 g/L) and HEPES (24 mM). Cells were kept at 37° C. in 5% CO2/humidified air. For the experiments the cells were seeded at a density of 16,000 cells/well into 96-well black, clear-bottom plates. After 24 hours incubation the cells were loaded with medium supplemented with 2.5 mM probenecid, 3 μM of the calcium sensitive fluorescent dye Fluo-4 AM and 0.01% pluronic acid, for 30 min at 37° C. Afterwards the loading solution was aspirated and 100 μl/well of assay buffer: Hank's Balanced Salt Solution (HBSS) supplemented with 2.5 mM probenecid and 500 μM Brilliant Black (Aldrich) was added. Stock solutions (100 mM) of ligands were made in Dimethyl Sulfoxide (DMSO) and stored at −20° C. Serial dilutions of ligands for experimental use were made in HBSS buffer. After placing both plates (cell culture and compound plate) into the FlexStation II (Molecular Device, Union City, Calif. 94587, US), fluorescence changes were measured. On-line additions were carried out in a volume of […]. To facilitate drug diffusion into the wells in antagonist type experiments, the studies were performed at 36.5° C. and three cycles of mixing (25 μl from each well moved up and down 3 times) were performed immediately after antagonist injection to the wells. All exemplified compounds were tested alone (to address residual agonistic activity) and against 1 μM of PF-4840154 to address inhibitory activity at the initial concentration of 10 μM. For selected examples the entire inhibitory concentration-response curves were constructed and the IC50 value calculated.
PF-4840154 (1 μM) increased [Ca^2+] in the vast majority (95%) of cultured cells which were thereby identified as TRPA1 expressing cells.

T1 sequence (O75762 whole entry): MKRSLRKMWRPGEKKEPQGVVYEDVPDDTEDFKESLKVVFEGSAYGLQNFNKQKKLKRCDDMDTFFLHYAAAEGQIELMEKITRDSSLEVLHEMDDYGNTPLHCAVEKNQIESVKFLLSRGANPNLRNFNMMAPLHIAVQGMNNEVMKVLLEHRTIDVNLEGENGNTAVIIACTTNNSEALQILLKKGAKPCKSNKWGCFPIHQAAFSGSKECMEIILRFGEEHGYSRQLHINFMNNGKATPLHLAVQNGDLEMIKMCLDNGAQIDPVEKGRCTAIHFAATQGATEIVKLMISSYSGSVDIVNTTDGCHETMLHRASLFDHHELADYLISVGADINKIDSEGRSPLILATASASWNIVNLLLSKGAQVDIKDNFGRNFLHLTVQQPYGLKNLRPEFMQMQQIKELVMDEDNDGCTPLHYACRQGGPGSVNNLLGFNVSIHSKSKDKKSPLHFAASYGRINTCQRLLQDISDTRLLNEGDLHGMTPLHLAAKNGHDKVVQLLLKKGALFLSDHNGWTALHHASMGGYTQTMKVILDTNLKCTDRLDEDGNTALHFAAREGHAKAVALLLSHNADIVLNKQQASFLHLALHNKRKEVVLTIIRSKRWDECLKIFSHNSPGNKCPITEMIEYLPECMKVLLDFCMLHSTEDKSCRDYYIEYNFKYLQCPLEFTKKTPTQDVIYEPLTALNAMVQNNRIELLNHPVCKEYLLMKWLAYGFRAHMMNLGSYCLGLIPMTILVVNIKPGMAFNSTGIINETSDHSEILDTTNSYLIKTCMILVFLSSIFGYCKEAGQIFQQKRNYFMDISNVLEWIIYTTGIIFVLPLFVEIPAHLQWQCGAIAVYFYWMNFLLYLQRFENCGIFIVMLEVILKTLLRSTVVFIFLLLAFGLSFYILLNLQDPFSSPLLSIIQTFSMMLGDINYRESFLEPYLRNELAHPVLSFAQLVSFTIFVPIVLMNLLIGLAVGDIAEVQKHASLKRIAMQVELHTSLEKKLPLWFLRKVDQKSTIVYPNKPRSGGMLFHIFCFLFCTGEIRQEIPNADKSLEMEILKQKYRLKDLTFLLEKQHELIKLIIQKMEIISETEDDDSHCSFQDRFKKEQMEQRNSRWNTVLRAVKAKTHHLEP

Structure (SMILES)	inhibition at 10 µM [%]	pIC50 (A549 cells)	IC50 (against PF-4840154 (1 μM), A549 cells, cells printed in μM) [µM]
C=C(C(=O)NCc1ccnc(-c2ccc(OC(F)(F)F)cc2)c1)N(C)S(=O)(=O)c1ccc(C)cc1 [Example 6, 2-(methyl(p-tolylsulfonyl)amino)-N-[[2-[4-(trifluoromethoxy)phenyl]-4-pyridyl]methyl]prop-2-enamide]	100	6.45	
C/C=C(/C(=O)NCc1cccc(-c2ccc(C(F)(F)F)cc2)c1)N(C)S(=O)(=O)c1ccc(Cl)cc1 [Example 23, (Z)-2-[(4-chlorophenyl)sulfonyl-methyl-amino]-N-[[3-[4-(trifluoromethyl)phenyl]phenyl]methyl]but-2-enamide]	98	6.36	
C=C(C(=O)NCc1ccnc(-c2ccc(C(F)(F)F)cc2)c1)N(C)S(=O)(=O)c1ccc(F)cc1 [Example 56, 2-[(4-fluorophenyl)sulfonyl-methyl-amino]-N-[[2-[4-(trifluoromethyl)phenyl]-4-pyridyl]methyl]prop-2-enamide]	100	6.56	
C=C(C(=O)NCc1ccnc(-c2ccc(OC(F)(F)F)cc2)c1)N(C)S(=O)(=O)c1ccc(F)cc1 [Example 2, 2-[(4-fluorophenyl)sulfonyl-methyl-amino]-N-[[2-[4-(trifluoromethoxy)phenyl]-4-pyridyl]methyl]prop-2-enamide]	98	6.87	
C=C(C(=O)NCc1cc(OC(C)C)nc(-c2ccc(C(F)(F)F)cc2)c1)N(CC)S(=O)(=O)c1ccc(F)cc1 [Example 44, 2-[ethyl-(4-fluorophenyl)sulfonyl-amino]-N-[[2-isopropoxy-6-[4-(trifluoromethyl)phenyl]-4-pyridyl]methyl]prop-2-enamide]	100	7.74	
C=C(C(=O)NCc1ccnc(-c2ccc(C(F)(F)F)cc2)c1)N(CC)S(=O)(=O)c1cccc(F)c1 [Example 36]	100	6.93	
C=C(C(=O)NCc1cccc(-c2ccc(C(F)(F)F)cc2)c1)N(C)S(=O)(=O)c1ccc(Cl)cc1 [Example 9, 2-[(4-chlorophenyl)sulfonyl-methyl-amino]-N-[[3-[4-(trifluoromethyl)phenyl]phenyl]methyl]prop-2-enamide]	98	7.17	
C=C(C(=O)NCc1cc(-c2ccc(OC(F)(F)F)cc2)nc(-c2ccc(OC(F)(F)F)cc2)c1)N(C)S(=O)(=O)c1ccc(Cl)cc1 [Example 20, N-[[2,6-bis[4-(trifluoromethoxy)phenyl]-4-pyridyl]methyl]-2-[(4-chlorophenyl)sulfonyl-methyl-amino]prop-2-enamide]	96	6.60	
C=C(C(=O)NCc1cccc(-c2ccc(C(F)(F)F)cc2)c1)N(CC)S(=O)(=O)c1ccc(F)cc1 [Example 8, 2-[ethyl-(4-fluorophenyl)sulfonyl-amino]-N-[[3-[4-(trifluoromethyl)phenyl]phenyl]methyl]prop-2-enamide]	100	7.12	
C=C(C(=O)NCc1ccnc(-c2ccc(C(F)(F)F)cc2)c1)N(CC)S(=O)(=O)c1ccc(F)c(F)c1 [Example 35, 2-[(3,4-difluorophenyl)sulfonyl-ethyl-amino]-N-[[2-[4-(trifluoromethyl)phenyl]-4-pyridyl]methyl]prop-2-enamide]	100	7.24	
C=C(C(=O)NCc1cc(-c2ccc(OC(F)(F)F)cc2)nc(N2CCOCC2)c1)N(CC)S(=O)(=O)c1ccc(Cl)cc1 [Example 17, 2-[(4-chlorophenyl)sulfonyl-ethyl-amino]-N-[[2-morpholino-6-[4-(trifluoromethoxy)phenyl]-4-pyridyl]methyl]prop-2-enamide]	98	6.92	
C=C(C(=O)NCc1cc(-c2ccc(OC(F)(F)F)cc2)nc(N2CCOCC2)c1)N(C)S(=O)(=O)c1ccc(Cl)cc1 [Example 16, 2-[(4-chlorophenyl)sulfonyl-methyl-amino]-N-[[2-morpholino-6-[4-(trifluoromethoxy)phenyl]-4-pyridyl]methyl]prop-2-enamide]	99	6.34	
CCN(C1(C(=O)NCc2ccnc(-c3ccc(OC(F)(F)F)cc3)c2)CC1)S(=O)(=O)c1ccc(Cl)s1 [Example 28, 1-[(5-chloro-2-thienyl)sulfonyl-ethyl-amino]-N-[[2-[4-(trifluoromethoxy)phenyl]-4-pyridyl]methyl]cyclopropanecarboxamide]	100	6.89	
C=C(C(=O)NCc1ccnc(-c2ccc(OC(F)(F)F)cc2)c1)N(CC)S(=O)(=O)c1ccc(F)cc1 [Example 3, 2-[(4-fluorophenyl)sulfonyl-ethyl-amino]-N-[[2-[4-(trifluoromethoxy)phenyl]-4-pyridyl]methyl]prop-2-enamide]	95	7.03	

Results, then the compound that gave them:

inhibition at 10 µM [%]	pIC50 (A549 cells)	IC50 (against PF-4840154 (1 μM), A549 cells, cells printed in μM) [µM]	Structure (SMILES)
100	7.03		C=C(C(=O)NCc1cc(-c2ccc(OC(F)(F)F)cc2)nc(N2CCCC2)c1)N(CC)S(=O)(=O)c1ccc(F)cc1 [Example 18, 2-[ethyl-(4-fluorophenyl)sulfonyl-amino]-N-[[2-pyrrolidin-1-yl-6-[4-(trifluoromethoxy)phenyl]-4-pyridyl]methyl]prop-2-enamide]
100	6.80		CN(C1(C(=O)NCc2cccc(-c3ccc(C(F)(F)F)cc3)c2)CC1)S(=O)(=O)c1ccc(F)cc1 [Example 58, 1-[(4-fluorophenyl)sulfonyl-methyl-amino]-N-[[3-[4-(trifluoromethyl)phenyl]phenyl]methyl]cyclopropanecarboxamide]
95	6.23		CCN(C1(C(=O)NCc2cc(-c3ccc(C(F)(F)F)cc3)nc(N3CCN(C4CCCCC4)CC3)c2)CC1)S(=O)(=O)c1ccc(Cl)s1 [Example 67, 1-[(5-chloro-2-thienyl)sulfonyl-ethyl-amino]-N-[[2-(4-cyclohexylpiperazin-1-yl)-6-[4-(trifluoromethyl)phenyl]-4-pyridyl]methyl]cyclopropanecarboxamide]
100	6.49		CCN(C1(C(=O)NCc2cc(-c3ccc(C(F)(F)F)cc3)nc(N3CCN(CC4CC4)CC3)c2)CC1)S(=O)(=O)c1ccc(Cl)s1 [Example 65, 1-[(5-chloro-2-thienyl)sulfonyl-ethyl-amino]-N-[[2-[4-(cyclopropylmethyl)piperazin-1-yl]-6-[4-(trifluoromethyl)phenyl]-4-pyridyl]methyl]cyclopropanecarboxamide]
100	6.37		CCN(C1(C(=O)NCc2cc(-c3ccc(C(F)(F)F)cc3)ccn2)CC1)S(=O)(=O)c1ccc(F)cc1 [Example 60, 1-[ethyl-(4-fluorophenyl)sulfonyl-amino]-N-[[4-[4-(trifluoromethyl)phenyl]-2-pyridyl]methyl]cyclopropanecarboxamide]
95	6.11		CCN(C1(C(=O)NCc2cc(-c3ccc(OC(F)(F)F)cc3)nc(N3CCCC3)c2)CC1)S(=O)(=O)c1ccc(F)cc1 [Example 61, 1-[ethyl-(4-fluorophenyl)sulfonyl-amino]-N-[[2-pyrrolidin-1-yl-6-[4-(trifluoromethoxy)phenyl]-4-pyridyl]methyl]cyclopropanecarboxamide]
99	6.74		C=C(C(=O)NCc1cc(-c2ccc(C(F)(F)F)cc2)nc(N2CCCC2)c1)N(C)S(=O)(=O)c1ccc(Cl)cc1 [Example 13, 2-[(4-chlorophenyl)sulfonyl-methyl-amino]-N-[[2-pyrrolidin-1-yl-6-[4-(trifluoromethyl)phenyl]-4-pyridyl]methyl]prop-2-enamide]
98	7.02		CCN(C1(C(=O)NCc2cc(OC(C)C)nc(-c3ccc(C(F)(F)F)cc3)c2)CC1)S(=O)(=O)c1ccc(F)cc1 [Example 49, 1-[ethyl-(4-fluorophenyl)sulfonyl-amino]-N-[[2-isopropoxy-6-[4-(trifluoromethyl)phenyl]-4-pyridyl]methyl]cyclopropanecarboxamide]
96	6.59		CCN(C1(C(=O)NCc2cc(OC)nc(-c3ccc(C(F)(F)F)cc3)c2)CC1)S(=O)(=O)c1ccc(F)cc1 [Example 48, 1-[ethyl-(4-fluorophenyl)sulfonyl-amino]-N-[[2-methoxy-6-[4-(trifluoromethyl)phenyl]-4-pyridyl]methyl]cyclopropanecarboxamide]
93		1.5	CCN(C1(C(=O)NCc2cc(-c3ccc(C(F)(F)F)cc3)nc(N3CCN(C4CCCCC4)CC3)c2)CC1)S(=O)(=O)c1ccc(F)cc1 [Example 66, N-[[2-(4-cyclohexylpiperazin-1-yl)-6-[4-(trifluoromethyl)phenyl]-4-pyridyl]methyl]-1-[ethyl-(4-fluorophenyl)sulfonyl-amino]cyclopropanecarboxamide]
